# What was measured:
# J2N-k hamsters [1] = test: Efficacy evaluation in dilated cardiomyopathy model (Example 1); type: in vivo, hamster
# Excerpt: J2N-k hamsters (18-week-old, male, 20 animals in total), which are model animals of dilated cardiomyopathy, were obtained from Japan SLC, acclimated for 2 weeks, and then used for experiments. J2N-k hamsters spontaneously develop dilated cardiomyopathy due to deletion mutations in the […] gene (specifically, cardiomyocyte shedding and fibrosis begin around 5 weeks of age, cardiomegaly and cardiac dysfunction appear at approximately 20 weeks of age, and eventually they die of congestive heart failure at approximately 1 year. J Biochem. 2003 August; 134(2):269-76). Also, a peptide consisting of amino acid residues 1-44 (SEQ ID NO: 1) of the human HMGB1 protein was chemically synthesized by a solid-phase method. Hereinafter, the peptide is referred to as the HMGB1 peptide (1-44), and is abbreviated as “1-44” in the drawing corresponding to the Examples.
# J2N-k hamsters were divided into the HMGB1 peptide (1-44)-treated (n=10) and PBS-treated (control, n=10) groups, and treatment was begun at 20 weeks of age (body weight about 120 g). Administration of the test substance was carried out by injecting a solution of the HMGB1 peptide (1-44), which has been adjusted to a concentration of 1 mg/ml with PBS as the vehicle, into the external jugular vein at a dose of 3 ml/kg (3 mg/kg as the peptide dosage) once a day for four consecutive days. In the control group, PBS was injected into the external jugular vein at a dose of 3 ml/kg once a day for four consecutive days. At 6 weeks after administration, a thoracotomy was performed under deep anesthesia, and the heart was removed. The mid portion of the heart was divided for cryopreservation and for paraffin fixation, and a histopathological examination was performed. Molecular biological studies were also performed using apical myocardium to evaluate effects of administration of the HMGB1 peptide (1-44).
# Echocardiography was performed prior to dosing, and at 4 and 6 weeks after dosing; and left ventricular end-diastolic diameter (LVDd), left ventricular end-systolic diameter (LVDs), and left ventricular ejection fraction (LVEF) were measured and calculated to perform a cardiac function assessment. […]
# Periodic Acid Schiff (PAS) staining of the myocardial tissue sections was performed to measure the short diameter of cardiomyocytes retaining a nuclear architecture, and the average of the measurements was obtained. This measurement was performed in five different fields and the mean value was calculated.
# Immunostaining of the myocardial tissue sections was performed using antibodies against PDGFRα and CD29, which are surface markers of mesenchymal stem cells, to assess whether accumulation of mesenchymal stem cells was observed. Staining of the nuclei was performed using DAPI. […]
# The structure of cardiomyocytes was observed by electron microscopy. Specifically, the full-thickness myocardium of the mid-portion was sampled, and subjected to pre-fixation with ½ Karnofsky, post-fixation with 2% osmium tetroxide, block-staining with 0.5% uranium acetate aqueous solution and dehydration with ethanol, and then embedded and polymerized by infiltrating epoxy resin (Queto1812). Ultrathin sections (70-110 nm) were made, and electron staining with uranium acetate and a lead stain solution was performed, and then observed by electron microscopy (H-7500, Hitachi High Technologies).
# J2N-k hamsters [2] = test: Efficacy evaluation in dilated cardiomyopathy model, long-term observations (Example 2); type: in vivo, hamster; conditions: vs PBS group
# Description: As in Example 1, twenty J2N-k hamsters were prepared and divided into the HMGB1 peptide (1-44)-treated group (n=11) and the PBS-treated group (control, n=9), and treatment was begun at 20 weeks of age. Administration of the test substance was carried out by injecting a solution of the HMGB1 peptide (1-44), which has been adjusted to a concentration of 1 mg/ml with PBS as the vehicle, into the external jugular vein at a dose of 3 ml/kg (3 mg/kg as the peptide dosage) once daily for four consecutive days. In the control group, PBS was injected into the external jugular vein at a dose of 3 ml/kg once a day for four consecutive days. Evaluation of the cardiac function and survival rate was continued thereafter while rearing the hamsters under normal conditions.
# Echocardiography was performed prior to dosing, at 4 weeks after dosing, and every 2 weeks thereafter to measure LVEF.
# After the last dose, the animals were kept under normal conditions and the survival rate was evaluated.
# [3] = tested on: old myocardial infarction model rats; test: Efficacy evaluation in old myocardial infarction model rats (Example 3); type: in vivo, SD rats
# Description: SD rats (7-week-old, male, body weight of approximately 250 g) were anesthetized with the inhalation anesthetic sevofrane (or isoflurane) and intubated endotracheally after adequate suppression was achieved, and deep anesthesia was maintained with the inhalation anesthetic. A thoracotomy was performed in the supine position at the left fourth intercostal space, and the proximal portion of the left anterior descending coronary artery was ligated with 6-0 prolene sutures to create a broad-area myocardial infarction model. The cardiac function was evaluated by echocardiography 2 weeks after the infarction was made, and cases in which extensive infarction was obtained (LVEF<50%) were used as old myocardial infarction model rats (17 animals in total). Similar to the above examples, the HMGB1 peptide (1-44) consisting of SEQ ID NO: 1 was used.
# The old myocardial infarction model rats were divided into the HMGB1 peptide (1-44)-treated group (n=9) and the PBS-treated group (control, n=8), and treatment was begun 2 weeks after the infarction was made. Administration of the test substance was carried out by injecting a solution of the HMGB1 peptide (1-44), which has been adjusted to a concentration of 1 mg/ml with PBS as vehicle, into the femoral veins at a dose of 3 ml/kg (3 mg/kg as the peptide dosage) once daily for four consecutive days. In the control group, PBS was injected at a dose of 3 ml/kg once a day via the femoral vein for four consecutive days. At 4 weeks after dosing, the heart was removed by re-thoracotomy under deep anesthesia. […] Both groups were comparatively studied using cardiac physiological, histopathological, and molecular biological techniques to evaluate the effects of administering the HMGB1 peptide (1-44). The condition after 2 weeks (14 days) or more have passed following the onset of myocardial infarction in model rats is equivalent to the condition after 30 days or more have passed following the onset of myocardial infarction in humans.
# Echocardiography was performed at 1, 2, and 4 weeks after dosing, and the left ventricular end-diastolic diameter (LVDd), left ventricular end-systolic diameter (LVDs), and left ventricular ejection fraction (LVEF) were measured and calculated to perform a cardiac function assessment.
# Myocardial tissue sections were stained with Sirius red, and the proportion of stain-positive area in the total area of the left ventricular myocardium was calculated as the percentage of fibrosis (%).
# Von-Willebrand factors were stained at the infarct border to determine the number of blood vessels (number of vascular endothelial cells). This measurement was performed in 10 different fields and the mean value was calculated.
# Periodic Acid Schiff (PAS) staining was performed at the infarct border, and the short diameter of cardiomyocytes retaining a nuclear architecture at the infarct border was measured, and the average of the measurements was obtained. This measurement was performed in 10 different fields and the mean value was calculated.
# Staining of the nuclei was performed using DAPI.
# [4] = tested on: Dahl salt-sensitive rats (DIS/Eis rats); test: Efficacy evaluation in hypertensive cardiomyopathy model (Example 4); type: in vivo, rat; conditions: High-1-44 vs High-PBS group
# Excerpt: The Dahl salt-sensitive rats (hereafter also referred to as DIS/Eis rats) were used in the experiments. DIS/Eis rats are hypertensive when fed with a high-salt diet and are a model that develop heart failure at a high incidence (e.g., when fed with a diet supplemented with 8% NaCl from 6 weeks of age, blood pressure reaches 250 mm Hg at 9 weeks of age, death begin to appear from 12 weeks of age, and death is highly probable by 16 weeks of age).
# Ten DIS/Eis rats (6-weeks-old, male, body weight about 200 g, Japan SLC) were prepared and divided into two groups, a high-salinity diet group (n=7) and a low-salinity diet group (n=3), and feeding was continued until 15 weeks of age in which the former was fed with a diet supplemented with 8% NaCl and the latter was fed with a diet supplemented with 0.3% NaCl. Aside from the meals, nothing interfered with free movement and they were kept clean and rested without restriction on drinking water, feeding, and such in their cages.
# At 11 weeks of age, the high-salinity diet group (n=7) was divided into the HMGB1 peptide (1-44)-treated group (n=3) and the control group (n=4), and treatment was initiated. Administration of the test substance was carried out by injecting a solution of the HMGB1 peptide (1-44), which has been adjusted to a concentration of 1 mg/ml with PBS as the vehicle, into the tail vein at a dose of 3 ml/kg (3 mg/kg as the peptide dosage) once daily for four consecutive days. The control group was injected with PBS at a dose of 3 ml/kg once a day via the tail vein for four consecutive days. Similar to the control group, the low-salinity diet group (n=3) also received PBS via the tail vein for four consecutive days. At 4 weeks after dosing (at 15 weeks, of age), hearts were removed from the rats by thoracotomy under general anesthesia, and their weight was measured, and then histological sections of the left ventricular myocardial cross sections were prepared at the papillary muscle level and subjected to histological analysis. In the following description, the HMGB1 peptide (1-44) administration group fed with a high-salinity diet is abbreviated as the “High-1-44 group”; the control group fed with a high-salinity diet is abbreviated as the “High-PBS group” and the low-salinity diet group is abbreviated as the “Low-PBS group”.
# At 15 weeks of age, hearts were removed from rats in each group and weighed. […]
# Myocardial tissue sections were stained with Sirius red, and the proportion of stain-positive area in the area of the whole heart or the left ventricle was calculated as the percentage of fibrosis (%).
# [5] = 4 and 6 weeks after dosing, 3 mg/kg i.v. x4 days, vs PBS group
# [6] = apical myocardium, vs PBS group
# [7] = 4 weeks after dosing, vs PBS group
# [8] = immunostaining of myocardial tissue
# [9] = infarct border, vs PBS group, P=0.05
substance,measurement,setting,value
"HMGB1 peptide (1-44): peptide consisting of amino acid residues 1-44 (SEQ ID NO: 1) of the human HMGB1 protein, chemically synthesized by a solid-phase method (MGKGDPKKPRGKMSSYAFFVQTCREEHKKKHPDASVNFSEFSKK)",left ventricular end-diastolic diameter (LVDd),J2N-k hamsters [1]; [5],no significant differences
same,left ventricular end-systolic diameter (LVDs),J2N-k hamsters [1]; [5],no significant differences
same,TSG-6 expression level (RT-PCR),J2N-k hamsters [1]; [6],significantly higher
same,VEGF expression level (RT-PCR),J2N-k hamsters [1]; [6],significantly higher
same,short diameter of cardiomyocytes (PAS staining),"J2N-k hamsters [1]; both subendocardial layer and mid layer, 6 weeks after administration, vs PBS group",significantly smaller
same,left ventricular ejection fraction (LVEF),"J2N-k hamsters [1]; echocardiography 4 and 6 weeks after dosing, 3 mg/kg external jugular vein once a day for four days, compared with PBS group",significantly higher
same,recruitment of cells positive for both PDGFRα and CD29 to the myocardial tissue,J2N-k hamsters [1]; immunostaining of myocardial tissue sections,recruited
same,number of PDGFRα-positive and CD29-positive cells in the myocardial tissue,"J2N-k hamsters [1]; immunostaining, vs PBS group",significantly more
same,mitochondrial cristae structure of cardiomyocytes (electron microscopy),J2N-k hamsters [1]; loss of cristae structure in PBS group,cristae structure was maintained
same,"number of blood vessels (anti-CD31 immunostaining), mid layer","J2N-k hamsters [1]; mid layer, 6 weeks after administration, vs PBS group",significantly higher
same,percentage of Sirius red stain-positive area (myocardial fibrosis),"J2N-k hamsters [1]; myocardial tissue sections 6 weeks after administration, vs PBS group",significantly smaller
same,"number of blood vessels (anti-CD31 immunostaining), subendocardial layer","J2N-k hamsters [1]; subendocardial layer, 6 weeks after administration, vs PBS group",tended to be higher
same,survival rate (viability),J2N-k hamsters [2]; long-term observations,tendency toward higher viability
same,"LVEF, long-term","J2N-k hamsters [2]; until 6 weeks after administration, 3 mg/kg i.v. x4 days",remained significantly higher
same,left ventricular ejection fraction (LVEF),"[3]; 4 weeks after dosing, 3 mg/kg femoral vein once daily for four days, begun 2 weeks after infarction, vs PBS group",significantly higher
same,left ventricular end-diastolic diameter (LVDd),[3]; [7],smaller values
same,left ventricular end-systolic diameter (LVDs),[3]; [7],smaller values
same,recruitment of cells positive for both PDGFRα and CD90 near the infarct border,[3]; [8],recruited
same,recruitment of cells positive for both PDGFRα and CD105 near the infarct border,[3]; [8],recruited
same,PDGFRα-positive and CD90-positive cells in the vicinity of the infarct border,"[3]; immunostaining, vs PBS group",more
same,number of vessels at the infarct border (von-Willebrand factor staining),[3]; [9],significantly more vessels
same,short diameter of cardiomyocytes at the infarct border (PAS staining),[3]; [9],significantly smaller
same,percentage of Sirius red stain-positive area (myocardial fibrosis),"[3]; left ventricular myocardium, 4 weeks after dosing, vs PBS group",significantly smaller
same,average improvement in LVEF with respect to before the dosing,[3]; up to 4 weeks after dosing,about 7%
same,end-diastolic left ventricular anterior wall thickness (LVAWd),[4]; 15 weeks of age,smaller
same,heart weight,"[4]; 15 weeks of age, high-salinity diet, 3 mg/kg tail vein once daily for four days from 11 weeks of age",smaller heart weights
same,percentage of fibrosis in the left ventricle,[4]; left ventricle,smaller
same,percentage of Sirius red-stained positive area (percentage of fibrosis) in the whole heart,[4]; whole heart,smaller
